Our source for the IC50, Activity and zone of inhibition values is ChEMBL document CHEMBL4304805, “Antibacterial activity of 2-amino-4-hydroxypyrimidine-5-carboxylates and binding to Burkholderia pseudomallei 2-C-methyl-d-erythritol-2,4-cyclodiphosphate synthase” (Bioorg Med Chem Lett, 2019).

Molecules are shown by their SMILES. Activity calls are given as the source filed them. The rule behind the calls is not given here.

Experiment [1] deals with T1, 2-C-methyl-D-erythritol 2,4-cyclodiphosphate synthase (Salmonella typhimurium (strain LT2 / SGSC1412 / ATCC 700720), UniProt Q8ZMF7).
T1 sequence (Q8ZMF7 whole entry): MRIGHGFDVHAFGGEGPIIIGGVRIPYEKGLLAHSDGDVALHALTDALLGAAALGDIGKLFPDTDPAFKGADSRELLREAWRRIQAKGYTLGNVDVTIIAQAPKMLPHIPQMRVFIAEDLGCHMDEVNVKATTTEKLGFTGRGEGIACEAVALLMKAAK
Put plainly: Inhibition of Salmonella typhimurium IspF by malachite green dye based assay. On the set-up: species or system Salmonella enterica subsp. enterica serovar Typhimurium.

Experiment [2] deals with T2, 2-C-methyl-D-erythritol 2,4-cyclodiphosphate synthase (Burkholderia pseudomallei (strain K96243)) (UniProt Q63T71).
T2 sequence (whole entry): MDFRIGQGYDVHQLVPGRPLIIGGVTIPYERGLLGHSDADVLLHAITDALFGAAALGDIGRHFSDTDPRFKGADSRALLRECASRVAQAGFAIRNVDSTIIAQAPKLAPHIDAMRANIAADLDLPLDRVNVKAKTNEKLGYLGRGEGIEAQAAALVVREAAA
Kind of experiment: Binding affinity to Burkholderia pseudomallei IspF by surface plasmon resonance analysis. (In SPR one partner is held on a chip, and binding of the other changes the refractive index at the surface.)

In the next experiment the test system is Bacillus cereus. Kind of experiment: Antibacterial activity against Bacillus cereus at 0.5 mM by Kirby Bauer disk diffusion method. Format: functional. Conditions: read-out: DIZ. A general note: A growth-free zone around the sample is the usual read-out of agar diffusion tests.
The next experiment concerns Corynebacterium xerosis. Kind of experiment: Antibacterial activity against Corynebacterium xerosis at 0.5 mM by Kirby Bauer disk diffusion method. Format: functional. Conditions: read-out: DIZ.
The subject of the next experiment is Klebsiella pneumoniae. Kind of experiment: Antibacterial activity against Klebsiella pneumoniae at 0.5 mM by Kirby Bauer disk diffusion method. Format: functional. The note with it: read-out: DIZ.
Experiment [3] has as its system Mycolicibacterium smegmatis. Kind of experiment: Antibacterial activity against Mycobacterium smegmatis at 0.5 mM by Kirby Bauer disk diffusion method. Format: functional. The note with it: read-out: DIZ.
The subject of experiment [4] is Corynebacterium pseudodiphtheriticum. Kind of experiment: Antibacterial activity against Corynebacterium pseudodiphtheriticum at 0.5 mM by Kirby Bauer disk diffusion method. Format: functional. The note with it: read-out: DIZ.
The next experiment deals with Escherichia coli. Kind of experiment: Antibacterial activity against Escherichia coli at 0.5 mM by Kirby Bauer disk diffusion method. Conditions: read-out: DIZ. Format: functional.
A further experiment has as its system Micrococcus luteus. Put plainly: Antibacterial activity against Micrococcus luteus at 0.5 mM by Kirby Bauer disk diffusion method. Format: functional. The note with it: read-out: DIZ.
Another experiment concerns Pseudomonas aeruginosa. Kind of experiment: Antibacterial activity against Pseudomonas aeruginosa at 0.5 mM by Kirby Bauer disk diffusion method. Format: functional. The note with it: read-out: DIZ.
Experiment [5] has as its system Burkholderia thailandensis. Put plainly: Antibacterial activity against Burkholderia thailandensis at 0.5 mM by Kirby Bauer disk diffusion method. Format: functional. The note with it: read-out: DIZ.

In general, IC50 refers to the midpoint of a concentration-inhibition curve. Low values mean inhibition by little substance, high ones a need for much substance. On to `CCOC(=O)C1=C(C)N=c2s/c(=C\c3cc(Br)c(O)c(Br)c3)c(=O)n2C1c1cccs1` (stereo unspecified), for which the IC50 in experiment [1] is 37 µM.

For the compound `O=C(O)c1cnc(Nc2ccc(-c3ccncc3)cc2)nc1O`, the outcome in experiment [2] was Active. In addition, the zone of inhibition at 500 µM amounted to 10 mm in the experiment with Bacillus cereus; 0 mm in the experiment with Corynebacterium xerosis; 0 mm in the experiment with Klebsiella pneumoniae; 0 mm in experiment [3]; 0 mm in [4]; 0 mm with Escherichia coli. Moreover, the zone of inhibition at 500 µM (with Micrococcus luteus; in the experiment with Pseudomonas aeruginosa; in [5]) was 0 mm in each case. Further, the IC50 in experiment [1] came out at 23.5 µM.

On to `O=C(O)c1cnc(NCc2ccc(F)cc2)nc1O`, for which the zone of inhibition at 500 µM in the experiment on Bacillus cereus was 12 mm; with Corynebacterium xerosis, 0 mm; with Klebsiella pneumoniae, 0 mm; in [3], 0 mm; in experiment [4], 0 mm; in the experiment with Escherichia coli, 0 mm. For the same compound, the zone of inhibition at 500 µM in the experiment on Micrococcus luteus was found to be 0 mm; with Pseudomonas aeruginosa it was 0 mm; in [5], 12 mm.
